# Measured values taken from patent US20070140979A1, “Method for accelerating the rate of mucociliary clearance” (BAYER AKTIENGESELLSCHAFT, priority 1998, published 2007).
# Where two headings read alike, the source gives them in different places.
# B1: Bikunin: Bikunin (SEQ ID NO: 52), two Kunitz domain human homologue of bovine aprotinin, used in airway and HBE studies (protein, listed as Homo sapiens)
# chain: ADRERSIHDFCLVSKVVGRCRASMPRWWYNVTDGSCQLFVYGGCDGNSNNYLTKEECLKKCATVTENATGDLATSRNAADSSVPSAPRRQDSEDHSSDMFNYEEYCTANAVTGPCRASFPRWYFDVERNSCNNFIYGGCRGNKNSYRSEEACMLRCFRQQENPPLPLGSK
# B2: Recombinant Bikunin: fragment of placental bikunin containing both Kunitz domains (1-170), expressed in baculovirus/Sf9 cells (protein)
# chain: ADRERSIHDFCLVSKVVGRCRASMPRWWYNVTDGSCQLFVYGGCDGNSNNYLTKEECLKKCATVTENATGDLATSRNAADSSVPSAPRRQDSEDHSSDMFNYEEYCTANAVTGPCRASFPRWYFDVERNSCNNFIYGGCRGNKNSYRSEEACMLRCFRQQENPPLPLGSK
# Columns and labels:
# [1] = Isoelectric point by isoelectric focusing; assay type: physicochemical; conditions: Ampholine PAGplate pH 3.5 to 9.5, refolded purified protein
# Experimental: After staining, the migration distance from the cathodic edge of the gel to the different protein bands was measured. The pI of each unknown was determined by using a standard curve generated by a plot of the migration distance of standards versus the corresponding pI's. […] (Tenstad et al., 1994, Acta Physiol. Scand. 152:33-50).
# human plasma kallikrein = target: T1, human plasma kallikrein (Homo sapiens, UniProt P03952); experiment: Inhibition of human plasma kallikrein, Ki; assay type: biochemical; conditions: for Potency as inhibitor of plasma kallikrein compared with aprotinin (Trasylol), in words: in vitro
# T1 construct: purchased Sigma (St. Louis, Mo.)
# Experimental: Proteases. Bovine trypsin, human plasmin, and bovine pancreatic kallikrein quantitation was carried out by active site titration using p-nitrophenyl p′-guanidinobenzoate HCl as previousl) described (Chase, T., and Shaw, E., (1970) Methods Enzmol. 19, 20-27). […] Human tissue kallikrein (Bayer, Germany) quantification was carried out by active site titration using p′nitrophenyl p′-guanidinobenzoate HCl as previously described (Chase, T., and Shaw, E., (1970) Methods Enzmol. 19, 20-27).
# After 5 min. at 37° C., 15 μl of 2 mM GPK-AMC was added and the change in fluorescence (as above) was monitored. […] After 5 min. incubation at 37° C., 25 μl of 20 mM GPK-AMC was added and the change in fluorescence monitored. […] After 5 min. at 37° C. 15 μl of 20 mM PFR-AMC was added and the change in fluorescence monitored.
# diseased patients = conditions: inhalation; Robinson et al 1997, App et al 1990; cited from earlier work
# guinea pig trachea = experiment: Tracheal mucus velocity (TMV) in the guinea-pig; assay type: in vivo; conditions: 10 mM x 20 mins aerosol, 15 minutes after aerosol
# Experimental: […] […] The procedure used in this Example is described in Newton et al. in “Cila, Mucus and Mucociliary Interactions,” Ed., Baum, G. L. et al., Marcel Dekker, New York, 1998; Newton et al., Ped. Pulm. S17, Abs. 364, 998).
# A Bikunin formulation (50 ug/mL Bikunin (SEQ ID NO: 52) was prepared in HBBS containing 137 mM NaCl, 3 mM KC1, 3 mM KH2PO4, 8 mM Na2HPO4, 0.2% Tween-80, pH 7.1). The formulation was sterile filtered and endotoxin tested prior to use in this example. HBSS was used as a control solution. Hypnorm® (Fentanyl citrate 0.315 mg/mL and Fluanisone 10 mg/mL) was obtained from Janssen Animal Health and Hypnovel® (Midazolam 5 mg/mL) was obtained from Roche. Male Dunkin-Hartley guinea pigs (550-750 g) were supplied by David Hall, UK. Thermistor probes were obtained from Kane-May Ltd, UK. […]
# TMV was monitored using a lead collimated miniature Beta particle detector probe arranged to detect the radioactivity emitted from an injected aliquot of ^32P-labelled Saccharomyces cerevisiae as it was transported on the tracheal mucociliary layer of an anaesthetized guinea pig (Newton and Hall 1998) FIG. 16(a) illustrates the arrangement of the syringe and beta probe. FIG. 16(b) illustrates the counts detected by the probe as the ^32P-labelled S.cerevisiae is transported along the tracheal mucociliary layer. […]
# […] TMV was monitored immediately and every 15 minutes for 30 minutes. […]
# [2] = test system: Xenopus kidney epithelial cells (A6 cells); conditions: exposure of the apical membrane, Vallet et al 1997, Chraibi et al 1998, cited from earlier work
# [3] = test system: human bronchial epithelial cell (HBE); experiment: Short circuit current (Isc) of cultured human bronchial epithelial cells in Ussing chambers; assay type: cell-based; conditions: for Sodium current: 70 nM
# Experimental: Tertiary HBE cell monolayers grown to confluence were mounted in modified Ussing chambers, immersed in Krebs buffer (KBR) solution and bubbled with 95% 02/5% C02 warmed to 37 C.
# Cells were left to equilibrate for 20 minutes before calibrating for background noise and fluid resistance. Transepithelial potential difference was then clamped to 0 mV using a WPI EVC 4000 voltage clamp. Ag/AgCl electrodes were used to monitor Isc. […] Once a response to amiloride was seen, it was washed out with KBR solution. […] 90 minutes following agent treatment, amiloride (10 uM) was added. Once the current was stable forskolin (10 uM in PBS) and then bumetanide (100 uM in PBS) was added.
# Cells were left to equilibrate for 20 minutes before calibrating for background noise and fluid resistance. Transepithelial potential difference was then clamped to 0 mV using a WPI EVC 4000 voltage clamp. Ag/AgCl electrodes were used to monitor Isc. […] Once a response to amiloride was seen, it was washed out with KBR solution. […] 90 minutes following agent treatment, amiloride (10 uM) was added.
# allergic sheep = conditions: cited from earlier work
# [4] = test system: human bronchial epithelial cell (HBE); conditions: 1.5 μg.ml−1 (70 nM), normal HBE cells; McAulay et al 1998; cited from earlier work
# T1 sequence (P03952 391-638 limits assumed): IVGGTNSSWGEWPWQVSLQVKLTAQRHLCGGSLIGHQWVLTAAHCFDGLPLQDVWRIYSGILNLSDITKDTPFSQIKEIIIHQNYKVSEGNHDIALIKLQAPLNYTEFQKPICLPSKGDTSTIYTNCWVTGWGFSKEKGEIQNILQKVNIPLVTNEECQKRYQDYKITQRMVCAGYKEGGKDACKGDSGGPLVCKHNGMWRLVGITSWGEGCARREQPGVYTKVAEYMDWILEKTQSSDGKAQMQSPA
# T1 sequence (P03952 20-390 partner limits assumed): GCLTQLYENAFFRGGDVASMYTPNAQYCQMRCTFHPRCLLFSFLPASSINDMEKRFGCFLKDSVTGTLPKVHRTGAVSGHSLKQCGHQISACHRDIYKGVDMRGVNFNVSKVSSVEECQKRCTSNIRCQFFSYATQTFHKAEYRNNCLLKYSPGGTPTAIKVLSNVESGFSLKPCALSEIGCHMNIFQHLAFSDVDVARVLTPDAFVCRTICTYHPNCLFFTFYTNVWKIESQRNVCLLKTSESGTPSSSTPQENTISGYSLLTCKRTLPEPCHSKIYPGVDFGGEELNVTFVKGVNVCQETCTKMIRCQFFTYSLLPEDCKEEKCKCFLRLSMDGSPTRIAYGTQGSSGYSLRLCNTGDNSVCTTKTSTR
molecule,measurement,setting,value
CC[C@H](C)[C@@H]1NC(=O)[C@H](Cc2ccccc2)NC(=O)[C@H](CC(N)=O)NC(=O)[C@H](CC(N)=O)NC(=O)[C@@H]2CSSC[C@@H]3NC(=O)[C@H](C)NC(=O)[C@H](CCC(=O)O)NC(=O)[C@H](CCC(=O)O)NC(=O)[C@H](CO)NC(=O)[C@H](CCCNC(=N)N)NC(=O)[C@H](Cc4ccc(O)cc4)NC(=O)[C@H](CO)NC(=O)[C@H](CC(N)=O)NC(=O)[C@H](CCCCN)NC(=O)[C@H](CC(N)=O)NC(=O)CNC(=O)[C@H](CCCNC(=N)N)NC(=O)[C@H](CSSC[C@H](NC(=O)[C@@H]4CCCN4C(=O)CNC(=O)[C@H]([C@@H](C)O)NC(=O)[C@H](C(C)C)NC(=O)[C@H](C)NC(=O)[C@H](CC(N)=O)NC(=O)[C@H](C)NC(=O)[C@H]([C@@H](C)O)NC(=O)[C@@H](NC(=O)[C@H](Cc4ccc(O)cc4)NC(=O)[C@H](CCC(=O)O)NC(=O)[C@H](CCC(=O)O)NC(=O)[C@@H](N)Cc4ccc(O)cc4)CSSC[C@@H](C(=O)N[C@@H](Cc4ccccc4)C(=O)N[C@@H](CCCNC(=N)N)C(=O)N[C@@H](CCC(N)=O)C(=O)O)NC(=O)[C@H](CCCNC(=N)N)NC(=O)[C@H](CC(C)C)NC(=O)[C@H](CCSC)NC3=O)C(=O)N[C@@H](CCCNC(=N)N)C(=O)N[C@@H](C)C(=O)N[C@@H](CO)C(=O)N[C@@H](Cc3ccccc3)C(=O)N3CCC[C@H]3C(=O)N[C@@H](CCCNC(=N)N)C(=O)N[C@@H](Cc3c[nH]c4ccccc34)C(=O)N[C@@H](Cc3ccc(O)cc3)C(=O)N[C@@H](Cc3ccccc3)C(=O)N[C@@H](CC(=O)O)C(=O)N[C@@H](C(C)C)C(=O)N[C@@H](CCC(=O)O)C(=O)N[C@@H](CCCNC(=N)N)C(=O)N[C@@H](CC(N)=O)C(=O)N[C@@H](CO)C(=O)N2)NC(=O)CNC(=O)CNC(=O)[C@H](Cc2ccc(O)cc2)NC1=O [Bikunin (102-159)],pI,[1],8.3
same,Ki,"human plasma kallikrein; Kallikrein ([…] nM), Table 4B",7 nM
same,"Potency as inhibitor of plasma kallikrein compared with aprotinin (Trasylol), in words",human plasma kallikrein,significantly more potent
N=C(N)NC(=O)c1nc(Cl)c(N)nc1N [amiloride],MCC in diseased patients,diseased patients,significantly increase
same,TMV after aerosol,guinea pig trachea,statistically significant increase
Aprotinin,Transepithelial Na+ transport,[2],reduce
same,Transepithelial Na+ transport,[2]; listed as aprotinin,reduced
same,Sodium short circuit current,"[3]; 5 ug/mL, FIG. 20",decrease
Des Pro2-Ser10-Arg15-Asp24-Thr26-Glu31-Asn41-Glu53-Aprotinin [Aprotinin double mutein],Sodium short circuit current,"[3]; 0.5 to 5 ug/mL, 90 minute period",dose dependently inhibited
same,Sodium short circuit current,"[3]; 0.5 to 5 ug/mL, 90 minute period, listed as aprotinin double mutein",decrease
α1-PI: serpin-family serine protease inhibitor alpha(1)-protease inhibitor,Antigen-induced reduction in TMV,"allergic sheep; 10 mg, 30 min before or 1 h after antigen challenge, 6 h after challenge",attenuated
same,Baseline TMV,"allergic sheep; administered on its own (no antigen challenge), over a 6 h period",no effect
same,Antigen-induced fall in TMV,"allergic sheep; given 6 h after antigen challenge, at 24 h after challenge",significant reversal
same,Effect on Na+ Isc,"[3]; 50 μg.ml−1, normal HBE cells, further study",without a significant effect
B1,Sodium current,[3]; 90 minute period,decreases
same,Sodium current,"[3]; 90 minute period, listed as Bukinin",inhibited
same,Inhibition of Na+ Isc,"[3]; 5 μg.ml−1, normal HBE cells, further study",84%
same,Sodium short circuit current,"[3]; 5 ug/mL, FIG. 20",decrease
same,Inhibition of Na+ Isc,[4],54%
B2,"Potency as inhibitor of plasma kallikrein compared with aprotinin (Trasylol), in words",human plasma kallikrein,more potent
same,"Potency as inhibitor of plasma kallikrein compared with aprotinin (Trasylol), in words",human plasma kallikrein; listed as bikunin(1-170),significantly more potent
